Measured values: ChEMBL document CHEMBL6096719, “Kidney Targeting Smart Antibiotic Discovery: Multimechanism Pleuromutilins for Pyelonephritis Therapy” (J Med Chem, 2025)
Values after ≈ are worked out from the molar mass of the structure shown.

Assays:
Staphylococcus aureus [1] = assay: Antibacterial activity against methicillin-resistant Staphylococcus aureus 171 assessed as inhibition of bacterial growth incubated for 24 hrs by broth microdilution method; type: functional
Staphylococcus aureus [2] = assay: Antibacterial activity against methicillin-resistant Staphylococcus aureus 575 assessed as inhibition of bacterial growth incubated for 24 hrs by broth microdilution method; type: functional
Staphylococcus aureus [3] = assay: Antibacterial activity against methicillin-resistant Staphylococcus aureus 206 assessed as inhibition of bacterial growth incubated for 24 hrs by broth microdilution method; type: functional
Staphylococcus aureus [4] = assay: Antibacterial activity against methicillin-resistant Staphylococcus aureus 222 assessed as inhibition of bacterial growth incubated for 24 hrs by broth microdilution method; type: functional
Staphylococcus aureus [5] = assay: Antibacterial activity against methicillin-resistant Staphylococcus aureus 596 assessed as inhibition of bacterial growth incubated for 24 hrs by broth microdilution method; type: functional
Enterococcus = assay: Antibacterial activity against vancomycin-resistant Enterococcus 80 assessed as inhibition of bacterial growth incubated for 24 hrs by broth microdilution method; type: functional
Pseudomonas aeruginosa = assay: Antibacterial activity against multidrug-resistant Pseudomonas aeruginosa 126 assessed as inhibition of bacterial growth incubated for 24 hrs by broth microdilution method; type: functional
Klebsiella pneumoniae = assay: Antibacterial activity against multidrug-resistant Klebsiella pneumoniae 893 assessed as inhibition of bacterial growth incubated for 24 hrs by broth microdilution method; type: functional
Acinetobacter baumannii [6] = assay: Antibacterial activity against carbapenem-resistant Acinetobacter baumannii 882 assessed as inhibition of bacterial growth incubated for 24 hrs by broth microdilution method; type: functional
[7] = Cytotoxicity against human HepG2 cells assessed as reduction in cell viability incubated for 24 hrs by CCK8 assay; type: toxicity, cell-based
[8] = Cytotoxicity against human HEK293 cells assessed as reduction in cell viability incubated for 24 hrs by CCK8 assay; type: toxicity, cell-based
[9] = Cytotoxicity against human A549 cells assessed as reduction in cell viability incubated for 24 hrs by CCK8 assay; type: toxicity, cell-based
[10] = Aqueous solubility of the compound incubated for 12 hrs by UV-Vis spectrophotometry; type: physicochemical; conditions: buffer
Staphylococcus aureus [11] = assay: Antibacterial activity against methicillin-resistant Staphylococcus aureus ATCC 33591 assessed as inhibition of bacterial growth incubated for 24 hrs by broth microdilution method; type: functional
Staphylococcus aureus [12] = assay: Antibacterial activity against methicillin-resistant Staphylococcus aureus ATCC 43300 assessed as inhibition of bacterial growth incubated for 24 hrs by broth microdilution method; type: functional
Staphylococcus aureus [13] = assay: Antibacterial activity against Staphylococcus aureus ATCC 29213 assessed as inhibition of bacterial growth incubated for 24 hrs by broth microdilution method; type: functional
[14] = system: Staphylococcus epidermidis; assay: Antibacterial activity against methicillin-resistant Staphylococcus epidermidis ATCC 51625 assessed as inhibition of bacterial growth incubated for 24 hrs by broth microdilution method; type: functional
Acinetobacter baumannii [15] = assay: Antibacterial activity against Acinetobacter baumannii ATCC 19606 assessed as inhibition of bacterial growth incubated for 24 hrs by broth microdilution method; type: functional
Salmonella enterica = assay: Antibacterial activity against Salmonella enterica ATCC 14028 assessed as inhibition of bacterial growth incubated for 24 hrs by broth microdilution method; type: functional
Escherichia coli [16] = assay: Antibacterial activity against Escherichia coli ATCC 25922 assessed as inhibition of bacterial growth incubated for 24 hrs by broth microdilution method; type: functional
Escherichia coli [17] = assay: Antibacterial activity against Escherichia coli CMCC 44103 assessed as inhibition of bacterial growth incubated for 24 hrs by broth microdilution method; type: functional
Staphylococcus aureus [18] = assay: (§1) Antibacterial activity against methicillin-resistant Staphylococcus aureus ATCC33591 infected in systemic intraperitoneal infection Kunming mouse model assessed as decrease in inflammation, neutrophil infiltration, alveolar structure destruction, leukocyte infiltration, interstitial thickening in lungs at 5 mg/kg, ip treated at 1 hr post-infection and measured after 7 days by Hematoxylin-Eosin staining based analysis; type: functional, organism-based; conditions: time 7.0 day
Staphylococcus aureus [19] = assay: as §1, with “inflammation and” for “inflammation,”, “infiltration” for “infiltration, alveolar structure destruction, leukocyte infiltration, interstitial thickening”, “liver” for “lungs”; type: functional, organism-based; conditions: time 7.0 day
Staphylococcus aureus [20] = assay: as §1, with “inflammation and” for “inflammation,”, “infiltration” for “infiltration, alveolar structure destruction, leukocyte infiltration, interstitial thickening”, “kidney” for “lungs”; type: functional, organism-based; conditions: time 7.0 day
Staphylococcus aureus [21] = assay: as §1, with “infiltration and disordered spleen” for “infiltration, alveolar”, “structure” for “structure destruction, leukocyte infiltration, interstitial thickening in lungs”; type: functional, organism-based; conditions: time 7.0 day
[22] = Toxicity against methicillin-resistant Staphylococcus aureus ATCC33591 infected systemic intraperitoneal infection Kunming mouse model assessed as animal's mortality at 5 mg/kg, ip treated at 1 hr post-infection and measured after 7 days; type: organism-based; conditions: in vivo, 168 h, time 7 day
[23] = molecular target: Solute carrier family 22 member 1 (Homo sapiens, UniProt O15245); assay: Inhibition of human OCT1 transfected in HEK293 cells assessed as decrease in intracellular ASP accumulation at 200 uM incubated for 10 mins followed by incubation with ASP for 5 mins by fluorescence based analysis; type: cell-based; conditions: hek293, 0.25 h, time 15 min
Solute carrier family 22 member 1, sequence (O15245 whole entry): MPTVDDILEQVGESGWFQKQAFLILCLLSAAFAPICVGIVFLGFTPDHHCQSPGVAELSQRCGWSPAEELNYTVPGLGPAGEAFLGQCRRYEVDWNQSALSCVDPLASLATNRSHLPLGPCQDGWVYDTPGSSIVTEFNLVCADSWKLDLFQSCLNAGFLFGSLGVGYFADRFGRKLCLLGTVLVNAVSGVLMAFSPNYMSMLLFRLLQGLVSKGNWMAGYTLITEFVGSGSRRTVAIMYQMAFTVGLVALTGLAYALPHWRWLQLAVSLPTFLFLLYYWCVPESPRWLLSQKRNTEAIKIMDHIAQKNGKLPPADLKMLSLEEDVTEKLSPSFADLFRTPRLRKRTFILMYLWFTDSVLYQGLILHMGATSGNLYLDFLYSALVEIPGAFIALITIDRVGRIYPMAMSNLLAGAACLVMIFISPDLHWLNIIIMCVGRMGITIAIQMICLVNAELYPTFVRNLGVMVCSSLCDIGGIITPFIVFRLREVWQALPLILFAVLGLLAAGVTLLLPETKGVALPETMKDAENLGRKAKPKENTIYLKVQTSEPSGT

[24] = molecular target: T1, Solute carrier family 22 member 2 (Homo sapiens, UniProt O15244); assay: Inhibition of human OCT2 transfected in HEK293 cells assessed as decrease in intracellular ASP accumulation at 100 uM incubated for 10 mins followed by incubation with ASP for 5 mins by fluorescence based analysis; type: cell-based; conditions: hek293, 0.25 h, time 15 min
T1 sequence (O15244 whole entry): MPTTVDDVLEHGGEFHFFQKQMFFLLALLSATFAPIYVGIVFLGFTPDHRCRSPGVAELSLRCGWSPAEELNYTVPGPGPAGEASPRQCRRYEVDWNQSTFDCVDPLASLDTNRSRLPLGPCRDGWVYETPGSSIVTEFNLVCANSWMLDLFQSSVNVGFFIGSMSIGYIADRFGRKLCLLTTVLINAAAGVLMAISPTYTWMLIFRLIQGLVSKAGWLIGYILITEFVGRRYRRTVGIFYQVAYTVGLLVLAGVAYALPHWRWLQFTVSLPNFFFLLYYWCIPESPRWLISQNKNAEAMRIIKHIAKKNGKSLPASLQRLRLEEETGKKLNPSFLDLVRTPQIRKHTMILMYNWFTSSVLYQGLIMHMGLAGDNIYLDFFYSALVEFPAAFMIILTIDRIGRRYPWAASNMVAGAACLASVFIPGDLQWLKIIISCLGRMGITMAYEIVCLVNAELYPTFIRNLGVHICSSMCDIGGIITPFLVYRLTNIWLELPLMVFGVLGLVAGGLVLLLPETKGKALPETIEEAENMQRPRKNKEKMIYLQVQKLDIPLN

solubility at 12 h [10] [µg/mL] | Compound | MIC (Staphylococcus aureus [1]) [µg/mL] | MIC (Staphylococcus aureus [2]) [µg/mL] | MIC (Staphylococcus aureus [3]) [µg/mL] | MIC (Staphylococcus aureus [4]) [µg/mL] | MIC (Staphylococcus aureus [5]) [µg/mL] | MIC (Enterococcus) [µg/mL] | MIC (Pseudomonas aeruginosa) [µg/mL] | MIC (Klebsiella pneumoniae) [µg/mL] | MIC (Acinetobacter baumannii [6]) [µg/mL] | CC50 at 24 h [7] [µM] | CC50 at 24 h [8] [µM] | CC50 at 24 h [9] [µM] | other results
 | C=C[C@]1(C)C[C@@H](OC(=O)CS[C@@H]2C[C@H]3CC[C@@H](C2)N3C)[C@]2(C)[C@H](C)CC[C@]3(CCC(=O)[C@H]32)[C@@H](C)[C@@H]1O [RETAPAMULIN] | 128 (≈ 247 µM) | 32 (≈ 61.8 µM) | 64 (≈ 124 µM) | 128 (≈ 247 µM) | 32 (≈ 61.8 µM) | > 128 | 64 (≈ 124 µM) | 128 (≈ 247 µM) | 64 (≈ 124 µM) | 61.1 | 57.5 | 71.5 | 
128 (≈ 259 µM) | C=C[C@]1(C)C[C@@H](OC(=O)CSCCN(CC)CC)[C@]2(C)[C@H](C)CC[C@]3(CCC(=O)[C@H]32)[C@@H](C)[C@@H]1O [TIAMULIN] |  |  |  |  |  |  |  |  |  |  |  |  | 
395 | C=C[C@]1(C)C[C@@H](OC(=O)CSc2nc3cc[n+](Cc4ccc(F)cc4)cc3s2)[C@]2(C)[C@H](C)CC[C@]3(CCC(=O)[C@H]32)[C@@H](C)[C@@H]1O.[Br-] |  |  |  |  |  |  |  |  |  |  |  |  | 
691 | Br.C=C[C@]1(C)C[C@@H](OC(=O)CSc2nc3cc[n+](Cc4ccc([N+](=O)[O-])cc4)cc3[nH]2)[C@]2(C)[C@H](C)CC[C@]3(CCC(=O)[C@H]32)[C@@H](C)[C@@H]1O |  |  |  |  |  |  |  |  |  |  |  |  | 
392 | C=C[C@]1(C)C[C@@H](OC(=O)CSc2nc3cc[n+](Cc4cc(C)cc(C)c4)cc3s2)[C@]2(C)[C@H](C)CC[C@]3(CCC(=O)[C@H]32)[C@@H](C)[C@@H]1O.[Br-] |  |  |  |  |  |  |  |  |  |  |  |  | 
 | CN(C)CCC=C1c2ccccc2CCc2ccccc21 [AMITRIPTYLINE] |  |  |  |  |  |  |  |  |  |  |  |  | inhibition (INH) [23]: Active; inhibition (INH) [24]: Active
246 | C=C[C@]1(C)C[C@@H](OC(=O)CSc2nc3cc[n+](Cc4ccc(C(F)(F)F)cc4)cc3s2)[C@]2(C)[C@H](C)CC[C@]3(CCC(=O)[C@H]32)[C@@H](C)[C@@H]1O.[Br-] |  |  |  |  |  |  |  |  |  |  |  |  | 
91.8 | C=C[C@]1(C)C[C@@H](OC(=O)CSc2nc3cc[n+](Cc4cc(F)ccc4C#N)cc3[nH]2)[C@]2(C)[C@H](C)CC[C@]3(CCC(=O)[C@H]32)[C@@H](C)[C@@H]1O.[Br-] |  |  |  |  |  |  |  |  |  |  |  |  | 
150 | C=C[C@]1(C)C[C@@H](OC(=O)CSc2nc3cc[n+](Cc4ccc(OC)cc4)cc3[nH]2)[C@]2(C)[C@H](C)CC[C@]3(CCC(=O)[C@H]32)[C@@H](C)[C@@H]1O.[Br-] |  |  |  |  |  |  |  |  |  |  |  |  | 

Compound | solubility at 12 h [10] [µg/mL] | MIC (Staphylococcus aureus [1]) [µg/mL] | MIC (Staphylococcus aureus [2]) [µg/mL] | MIC (Staphylococcus aureus [3]) [µg/mL] | MIC (Staphylococcus aureus [4]) [µg/mL] | MIC (Staphylococcus aureus [5]) [µg/mL] | MIC (Enterococcus) [µg/mL] | MIC (Pseudomonas aeruginosa) [µg/mL] | MIC (Klebsiella pneumoniae) [µg/mL] | MIC (Acinetobacter baumannii [6]) [µg/mL] | CC50 at 24 h [7] [µM] | CC50 at 24 h [8] [µM] | CC50 at 24 h [9] [µM] | other results
C=C[C@]1(C)C[C@@H](OC(=O)CSc2nc3cc[n+](Cc4ccc(C#N)cc4)cc3[nH]2)[C@]2(C)[C@H](C)CC[C@]3(CCC(=O)[C@H]32)[C@@H](C)[C@@H]1O.[Br-] | 481 | 16 | 32 | 4 | 16 | 8 | 2 | 32 | 16 | 64 | 96.3 | > 100 | > 100 | MIC (Staphylococcus aureus [11]): < 2 µg/mL; MIC (Staphylococcus aureus [12]): < 2 µg/mL; MIC (Staphylococcus aureus [13]): < 2 µg/mL; MIC [14]: < 2 µg/mL; MIC (Acinetobacter baumannii [15]): < 2 µg/mL; MIC (Salmonella enterica): < 2 µg/mL; MIC (Escherichia coli [16]): < 2 µg/mL; MIC (Escherichia coli [17]): < 2 µg/mL
C=C[C@]1(C)C[C@@H](OC(=O)CSc2nc3cc[n+](Cc4ccc(C#N)cc4)cc3s2)[C@]2(C)[C@H](C)CC[C@]3(CCC(=O)[C@H]32)[C@@H](C)[C@@H]1O.[Br-] | 451 | 16 | 32 | 64 | 16 | 8 | 16 | 32 | 16 | 64 | 78.5 | 18.2 | > 100 | MIC (Staphylococcus aureus [11]): < 2 µg/mL; MIC (Staphylococcus aureus [12]): < 2 µg/mL; MIC (Staphylococcus aureus [13]): < 2 µg/mL; MIC [14]: < 2 µg/mL; MIC (Acinetobacter baumannii [15]): < 2 µg/mL; MIC (Salmonella enterica): < 2 µg/mL; MIC (Escherichia coli [16]): < 2 µg/mL; MIC (Escherichia coli [17]): < 2 µg/mL
C=C[C@]1(C)C[C@@H](OC(=O)CSc2nc3cc[n+](Cc4ccc(C)cc4)cc3s2)[C@]2(C)[C@H](C)CC[C@]3(CCC(=O)[C@H]32)[C@@H](C)[C@@H]1O.[Br-] | 568 | 8 | 4 | 2 | 4 | 8 | 8 | 8 | 2 | 4 | 46.4 | 82.1 | > 100 | 
C=C[C@]1(C)C[C@@H](OC(=O)CSC(C)(C)CNC(=O)[C@H](N)C(C)C)[C@]2(C)[C@H](C)CC[C@]3(CCC(=O)[C@H]32)[C@@H](C)[C@@H]1O [VALNEMULIN] | 218 (≈ 386 µM) | > 128 | 128 (≈ 227 µM) | 64 (≈ 113 µM) | 64 (≈ 113 µM) | > 128 | 64 (≈ 113 µM) | 64 (≈ 113 µM) | 32 (≈ 56.7 µM) | 64 (≈ 113 µM) | 77.3 | 65.4 | 53.7 | Activity (Staphylococcus aureus [18]): Active; Slight Without Complete Recovery Observed; Activity (Staphylococcus aureus [19]): Active; Slight Without Complete Recovery Observed; Activity (Staphylococcus aureus [20]): Active; Slight Without Complete Recovery Observed; Activity (Staphylococcus aureus [21]): Active; Slight Without Complete Recovery Observed; Activity [22]: Toxic
